In publication PMC10683025, “Discovery of a Hydroxylamine-Based Brain-Penetrant EGFR Inhibitor for Metastatic Non-Small-Cell Lung Cancer” (Journal of Medicinal Chemistry, 2023):
Read-outs that look alike come from different tables or passages of the source.

How the values were obtained:
[1] = Oral CNS pharmacokinetic assessment; assay type: in vivo, Sprague-Dawley rats; conditions: male, Sprague-Dawley, brain, Rat 20 mg/kg (PO)
Method: Animal experiments were performed at Pharmaron, Inc. and animal use was approved by Pharmaron’s Institutional Animal Care and Use Committee (IACUC) in Pharmaron (Pharmaron IACUC, Protocol #PK-M-07182022, #PK-R-06012022, and #ON-CELL-XEN-06012022) following the guidance of AAALAC. Six- to eight-week-old male Sprague-Dawley rats (approximately 200–300 g) obtained from Si Bei Fu Laboratory Animal Technology Co., six- to eight-week-old male CD1 mice (approximately 20–30 g) obtained from Si Bei Fu Laboratory Animal Technology Co., and six- to eight-week-old female BALB/c nude mice (approximately 20–30 g) obtained from Si Bei Fu Laboratory Animal Technology Co., were used in the pharmacokinetic studies. Six- to eight-week-old female BALB/c nude mice (approximately 18–22 g) obtained from Beijing Anikeeper Biotech Co., Ltd. were used in the intracranial PDX study. […]
Oral CNS pharmacokinetic assessment of 9 was done by oral gavage (formulation: 1% methylcellulose) followed by blood and brain sampling at 7 time points (0.25, 0.5, 1, 2, 4, 8, 24 h post dose) with n = 3 animals per time point (n = 21 total). […] Concentrations of 9 in the plasma and brain samples were determined using LC-MS/MS and WinNonlin 8.3 (Phoenix) was used for pharmacokinetic calculations. […]

[2] = tested on: panel of 468 kinases; assay: KINOMEScan selectivity scores
Text: (§1) Percent control was mapped onto the kinome tree using TREEspot.

[3] = molecular target: T1, ABL1(F317I)-nonphosphorylated (Homo sapiens, UniProt P00519, F317I); assay: KINOMEScan; assay type: binding; conditions: read-out: Percent Control
T1 construct: purchased Eurofins DiscoverX
Text: as §1

[4] = molecular target: T2, ZAK (Homo sapiens, UniProt Q9NYL2); assay: KINOMEScan; assay type: binding; conditions: read-out: Percent Control
T2 construct: purchased Eurofins DiscoverX (KINOMEScan service)
T2 sequence (Q9NYL2 whole entry): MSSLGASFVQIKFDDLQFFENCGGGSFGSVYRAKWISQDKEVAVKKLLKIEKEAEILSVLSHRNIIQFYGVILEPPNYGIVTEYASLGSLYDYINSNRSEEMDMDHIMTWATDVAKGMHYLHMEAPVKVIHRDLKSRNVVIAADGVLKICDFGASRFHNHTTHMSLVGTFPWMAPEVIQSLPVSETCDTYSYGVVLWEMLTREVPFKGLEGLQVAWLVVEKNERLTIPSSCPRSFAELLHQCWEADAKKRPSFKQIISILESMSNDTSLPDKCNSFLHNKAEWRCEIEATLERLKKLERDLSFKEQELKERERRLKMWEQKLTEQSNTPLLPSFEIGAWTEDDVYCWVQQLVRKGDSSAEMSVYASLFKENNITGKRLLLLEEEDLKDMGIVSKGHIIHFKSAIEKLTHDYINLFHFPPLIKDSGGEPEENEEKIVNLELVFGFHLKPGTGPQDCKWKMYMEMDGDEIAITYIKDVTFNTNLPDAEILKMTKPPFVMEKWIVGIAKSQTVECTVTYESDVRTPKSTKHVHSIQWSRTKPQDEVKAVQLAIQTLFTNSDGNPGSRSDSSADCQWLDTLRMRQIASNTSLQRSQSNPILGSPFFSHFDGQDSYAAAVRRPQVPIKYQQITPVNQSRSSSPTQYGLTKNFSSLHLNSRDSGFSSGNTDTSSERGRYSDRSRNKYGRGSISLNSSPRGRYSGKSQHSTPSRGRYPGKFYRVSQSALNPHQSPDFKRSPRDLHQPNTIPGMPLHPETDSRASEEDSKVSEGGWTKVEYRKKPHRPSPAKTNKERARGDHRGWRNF

[5] = molecular target: T3, CYP3A4 (Homo sapiens, UniProt P08684); assay: CYP450 inhibition in human liver microsomes; assay type: in vitro ADME; conditions: midazolam
T3 construct: incubated with pooled human liver microsomes (0.5 mg/mL) (BD Gentest); tissue BD Gentest; host or cells: pooled human liver microsomes
T3 sequence (P08684 whole entry): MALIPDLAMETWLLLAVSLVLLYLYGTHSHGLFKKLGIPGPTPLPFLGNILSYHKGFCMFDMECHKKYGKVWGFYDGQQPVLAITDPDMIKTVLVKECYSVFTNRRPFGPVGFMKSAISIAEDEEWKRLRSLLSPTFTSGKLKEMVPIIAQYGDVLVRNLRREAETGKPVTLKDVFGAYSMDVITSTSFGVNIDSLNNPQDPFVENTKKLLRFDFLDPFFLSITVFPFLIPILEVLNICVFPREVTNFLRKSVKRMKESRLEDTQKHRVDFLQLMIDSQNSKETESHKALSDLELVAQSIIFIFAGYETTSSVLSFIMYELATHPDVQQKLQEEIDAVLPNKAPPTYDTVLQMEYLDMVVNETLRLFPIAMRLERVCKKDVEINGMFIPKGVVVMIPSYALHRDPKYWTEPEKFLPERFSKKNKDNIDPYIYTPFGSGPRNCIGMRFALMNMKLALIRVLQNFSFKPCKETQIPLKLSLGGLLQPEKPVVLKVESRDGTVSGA
Method: The activities tested were CYP1A2-mediated phenacetin O-demethylation, CYP2C19-mediated (S)-mephenyotin 4′-hydroxylation, CYP2C9-mediated diclofenac 4′-hydroxylation, CYP2D6-mediated dextromethorphan O-demethylation, and CYP3A4-mediated midazolam 1′-hydroxylation. […] The reactions were initiated by adding NADPH (1 mM final concentration) after a 5 min preincubation, and the assay was run in duplicate (n = 2). Samples were analyzed by ultra-performance liquid chromatography tandem mass spectrometry (UPLC-MS/MS).

[6] = molecular target: T4, ABL1(T315I)-nonphosphorylated (Homo sapiens, UniProt P00519, T315I); assay: KINOMEScan; assay type: binding; conditions: read-out: Percent Control
T4 construct: purchased Eurofins DiscoverX
Text: as §1

[7] = molecular target: T5, ABL1-nonphosphorylated (Homo sapiens, UniProt P00519); assay: KINOMEScan; assay type: binding; conditions: read-out: Percent Control
T5 construct: purchased Eurofins DiscoverX
Text: as §1

[8] = tested on: luciferase-tagged HCC827 cells implanted into the brains; assay: Intracranial PDX model; assay type: in vivo, BALB/c nude mice; conditions: 10 mg/kg PO b.i.d.
Method: Animal experiments were performed at Pharmaron, Inc. and animal use was approved by Pharmaron’s Institutional Animal Care and Use Committee (IACUC) in Pharmaron (Pharmaron IACUC, Protocol #PK-M-07182022, #PK-R-06012022, and #ON-CELL-XEN-06012022) following the guidance of AAALAC. Six- to eight-week-old male Sprague-Dawley rats (approximately 200–300 g) obtained from Si Bei Fu Laboratory Animal Technology Co., six- to eight-week-old male CD1 mice (approximately 20–30 g) obtained from Si Bei Fu Laboratory Animal Technology Co., and six- to eight-week-old female BALB/c nude mice (approximately 20–30 g) obtained from Si Bei Fu Laboratory Animal Technology Co., were used in the pharmacokinetic studies. Six- to eight-week-old female BALB/c nude mice (approximately 18–22 g) obtained from Beijing Anikeeper Biotech Co., Ltd. were used in the intracranial PDX study. Animals were housed at 20–25 °C with humidity ranging from 40 to 70% relative humidity, were exposed to 12 h light and dark cycles, and were supplied with food and water ab libitum.
HCC827 cells stably expressing luciferase (HCC827-luc) were injected intracranially. Briefly, 3 × 10^5 HCC827-luc tumor cells suspended in 2 μL of RPMI1640 medium were injected into the right forebrain of anesthetized mice (anesthetic: intramuscular injection of ZoletlTM 50 (Virbac S.A)). Mice were imaged biweekly using IVIS Lumina III (PerkinElmer). Images were acquired 10 min post intraperitoneal (IP) injection with 15 mg/mL (at 5 μL/g body weight) of D-luciferin in anesthetized mice (anesthetic: 1–2% isoflurane inhalation). On day 20 postcellular inoculation, mice were randomized into 2 treatment groups (n = 10 mice per group): (1) 1% methylcellulose as vehicle control and (2) 9 (10 mg/kg) (formulation: 1% methylcellulose), PO, b.i.d. (twice daily) dosing (12 h intervals) × 7 days for 21 days. Body weights of all mice were measured biweekly throughout the study and BW change, expressed in % was calculated using the following formula: [drawing 5] where BWDay X is the BW on a given day and BWDay 0 is BW on day 0 (initiation of treatment).

[9] = Brain tissue binding by equilibrium dialysis; assay type: in vitro ADME, mouse
Method: Plasma protein binding and brain tissue binding were determined by Pharmaron, Inc. using the equilibrium dialysis method. […] Following incubation, the samples were analyzed by LC-MS/MS and the concentrations of the compounds were determined in the buffer and plasma solution chambers.

[10] = tested on: Salmonella strains (TA98, TA100, TA1537, and TA1535); conditions: ± rat liver S9, 4 strains; 9 valid up to 50 μM
Method: Compounds were assessed for mutagenicity at the Eurofins Panlabs in 384-well plates using four Salmonella strains: TA98, to probe for frameshift mutation (with quercetin as control), TA100 and TA1535, to probe for base pair insertions/deletions (with streptozotocin as control), and TA1537, to probe for frameshift mutations (with aminacridine as control) as previously described.[78] Each compound was incubated at 37 °C for 96 h at four different concentrations (5, 10, 50, and 100 μM), with each concentration tested using 48 replicates, both with and without rat liver S9 metabolic activation. A concurrent bacterial cytotoxicity assay was run at 0.6, 1.2, 2.5, 5, 10, 25, 50, and 100 μM to rule out false negatives. Bacterial cytotoxicity was expressed as percent of control growth (OD650). Compounds with growth of less than 60% control were flagged and considered bacterial cytotoxic. […] Significances of the positive counts between the treatment and control were determined using a one-tailed Fisher’s exact test.

[11] = CD-1, mouse, mouse brain homogenate

## COc1cc2ncnc(Nc3cccc(Cl)c3F)c2cc1OCCON1CCN(C)CC1 [Compound 9, N-(3-Chloro-2-fluorophenyl)-7-methoxy-6-(2-((4-methylpiperazin-1-yl)oxy)ethoxy)quinazolin-4-amine]
[1]; read-out: Kp brain (AUCinf)
  Kp at 24 h: 0.95
[1]; read-out: Kp,uu brain (AUCinf)
  Kp uu at 24 h: 0.33
[2]; percent control < 1, of 403
  Number of Hits S(1): 2
[2]; percent control < 10, of 403
  Number of Hits S(10): 6
[2]; percent control < 35, of 403
  Number of Hits S(35): 12
[3]
  remaining binding at 1 µM: 54%
[4]
  remaining binding at 1 µM: 89%
[5]
  IC50: > 30 µM
[6]
  remaining binding at 1 µM: 68%
[7]
  remaining binding at 1 µM: 8.9%
[8]; 21-day treatment window
  mean body weight loss: ≤ 10%
[8]; 21 days
  adverse clinical events: no adverse clinical events were observed
[8]; 21 days, P = 0.0059
  intracranial tumor response relative to vehicle control (bioluminescence): profound tumor regression
[9]; CD-1, mouse, brain homogenate, read-out: fu,brain% / %Unboundbrain
  fraction unbound at 6 h, 5 μM: 0.0405
[9]; [11]
  recovery at 6 h, 5 μM: 93%
  remaining at 6 h, 5 μM: 92.6%
[9]; CD-1, mouse, mouse brain homogenate, read-out: %Unboundbrain (converted)
  fraction unbound at 6 h, 5 μM: 0.0405
[9]; mouse, brain homogenate, read-out: fu,brain% / %Unboundbrain
  fraction unbound at 6 h, 5 µM: 0.041

## COc1cc2ncnc(Nc3cccc(Cl)c3F)c2cc1OCCON1CCOCC1 [Compound 7, N-(3-Chloro-2-fluorophenyl)-7-methoxy-6-(2-(morpholinooxy)ethoxy)quinazolin-4-amine]
[10]
  AMES: Negative
